Series [1] deals with primary astrocytes. Description: Cytotoxicity (Cytotox 96 LDH release) in primary astrocytes. It counts as cell-based. To be noted: three-hour exposure, 5 and 7.5 μM. The method, then:
Astrocytic death rate was measured using Cytotox 96 nonradioactive cytotoxicity assay kit (Promega, Madison, Wis.), which quantitatively measures lactate dehydrogenase (LDH) release from dead cells. Astroytes (5×10^3 cells/well) were seeded into 96-well microtiter plates. Following three hours normoxia or hypoxia treatment, 50 μl of the reconstituted substrate mixture was added to each well of the plate. Thirty minutes later, 50 μl of the stop solution was added to each well, and the absorbance was measured at 490 nm in a microplate reader (Bio-Rad 3350, Bio-Rad Laboratories, Inc. Hercules, Calif.). Triton-X 100-treated cells were used as 100% cell death control. The cell death rate was calculated by using the formula: Cell death rate=(Experimental absorbance value−culture medium absorbance value)/(Triton-X 100-treated absorbance value−culture medium absorbance value).
(LDH in the medium is a marker of cell lysis.)

Series [2] deals with primary neurons. As to the kind of experiment: Cytotoxicity (Cytotox 96 LDH release) in primary neurons. It counts as cell-based. To be noted: for neuron toxicity under hypoxia / cell death in normoxia: three-hour exposure; for neuron toxicity under hypoxia: 2.5-7.5 μM; for cell death in normoxia: any concentration tested.
Series [3] deals with ZnPP generation in the hemorrhagic brain. Description: ZnPP autofluorescence imaging on hemorrhagic brain slices. It counts as in vivo, rat. Here is the method: (§1) The Laboratory Animal Care and Use Committee of the University of New Mexico approved all experimental protocols. The animals were used in compliance with the NIH Guide for Care and Use of Laboratory Animals. Male Sprague Dawley rats (Charles River Laboratories, Inc., Wilmington, Mass.) weighing 290 g to 320 g were anesthetized with isoflurane (5% for induction, 2% for maintenance) in N2O/O2 (70:30%) during surgical procedures, and the body temperature was maintained at 37.5° C.±0.5° C. using a heating pad. A small burr hole was made at 3.5 mm right of the bregma. 0.2 U collagenase (Sigma-Aldrich, St. Louis, Mo.) in 1 μl sterile saline was injected to 6.0 mm deep through the burr hole. The needle was removed at five minutes after collagenase injection to prevent backflow. A total of 49 rats were used in this study.
N,N,N′,N′-tetrakis-(2-Pyridylmethyl)ethylenediamine (TPEN, Sigma-Aldrich, St. Louis, Mo.) was dissolved in dimethyl sulfoxide (DMSO) to 25 mg/ml and then further diluted in physiological saline to a final concentration of 2.5 mg/ml. 10 mg/kg TPEN was intraperitoneal injected at one hour before collagenase injection. Saline with 10% DMSO was used as control.
N-methyl protoporphyrin IX (Santa Cruz Biotechnology, Inc., Dallas, Tex.), a ferrochelatase inhibitor was dissolved in DMSO to 200 mg/ml and then further diluted in physiological saline to a final concentration of 20 mg/ml. […]

Series [4] deals with T1, ferrochelatase (Homo sapiens, UniProt P22830).
T1 sequence (P22830 55-423): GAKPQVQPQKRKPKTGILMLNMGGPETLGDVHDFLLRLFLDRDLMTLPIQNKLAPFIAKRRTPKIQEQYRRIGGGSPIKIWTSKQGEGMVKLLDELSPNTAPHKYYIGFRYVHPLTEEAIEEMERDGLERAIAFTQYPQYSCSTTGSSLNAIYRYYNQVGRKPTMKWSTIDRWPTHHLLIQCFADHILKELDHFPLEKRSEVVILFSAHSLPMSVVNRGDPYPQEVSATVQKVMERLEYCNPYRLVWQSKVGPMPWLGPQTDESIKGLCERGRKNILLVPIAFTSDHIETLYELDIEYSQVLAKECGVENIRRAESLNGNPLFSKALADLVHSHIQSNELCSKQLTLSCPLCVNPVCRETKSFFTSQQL
To be noted: cited from earlier work.

Series [5] relates to ICH-induced brain damage. As to the kind of experiment: Brain damage by T2-weighted MRI after collagenase-induced ICH. It counts as in vivo, rat. Here is the method: as §1
All multimodal magnetic resonance imaging (MRI) of the rat was performed by using a 4.7-Tesla MRI scanner (Bruker Biospin, Billerica, Mass.), which was equipped with a 40-cm bore, a 660 mT/m (rise time within 120 μs) gradient and shim systems (Bruker Biospin, Billerica, Mass.). The rats were anaesthetized with 2% isoflurane (Clipper Distributing Company, LLC, St. Joseph, Mo.) during MRI. At the same time respiration and heart rate were monitored. The body temperature of the rats was maintained at 37.0° C.±0.5° C. […]

The test system of series [6] is cell death in the hemorrhagic brain. As to the kind of experiment: Brain cell death by TUNEL assay after collagenase-induced ICH. Format: in vivo, rat. Here is the method: as §1, with “study. […]” for “study.”
A standard terminal deoxynucleotidyl transferase—mediated dUTP nick-end labeling (TUNEL) procedure for frozen tissue sections was performed (Click-iT TUNEL Alexa Fluor 488 Imaging Assay kit (Thermo Fisher Scientific, Waltham, Mass.). Histological images were captured on a fluorescence microscope (Olympus IX71, Olympus Corp., Center Valley, Pa.) with a TRITC dichroic mirror.

In series [7] the target is T2, heme oxygenase-1 (HO-1) (Homo sapiens, UniProt P09601).
T2 sequence (P09601 1-288): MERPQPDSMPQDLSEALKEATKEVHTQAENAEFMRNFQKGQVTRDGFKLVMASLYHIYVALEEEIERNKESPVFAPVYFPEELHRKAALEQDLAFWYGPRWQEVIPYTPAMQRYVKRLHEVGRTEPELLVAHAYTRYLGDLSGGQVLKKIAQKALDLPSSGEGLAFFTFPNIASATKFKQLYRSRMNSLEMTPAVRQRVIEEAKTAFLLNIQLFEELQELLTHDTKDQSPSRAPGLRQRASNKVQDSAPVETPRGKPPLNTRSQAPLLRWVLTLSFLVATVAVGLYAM
To be noted: levels as low as; cited from earlier work.

Series [8] deals with brain of permanent MCAO rat model. Description: ZnPP injection into brain parenchyma of MCAO or normal rats, T2-weighted MRI. It counts as in vivo. To be noted: MCAO rats, ZnPP 10 μg/kg into brain parenchyma of ischemic side. The method, then: All multimodal magnetic resonance imaging (MRI) of the rat was performed by using a 4.7-Tesla MRI scanner (Bruker Biospin, Billerica, Mass.), which was equipped with a 40-cm bore, a 660 mT/m (rise time within 120 μs) gradient and shim systems (Bruker Biospin, Billerica, Mass.). The rats were anaesthetized with 2% isoflurane (Clipper Distributing Company, LLC, St. Joseph, Mo.) during MRI. At the same time respiration and heart rate were monitored. The body temperature of the rats was maintained at 37.0° C.±0.5° C. The success of the intracerebral hemorrhage model and brain damage was estimated by T2-weighted images. T2-weighted images were acquired with a fast spin-echo sequence (rapid acquisition with relaxation enhancement (RARE)) (Repetition Time (TR)/Echo Time (TE)=5,000 ms/56 ms, Field of View (FOV)=4 cm×4 cm, slice thickness=1 mm, inter-slice distance=1.1 mm, number of slices=12, matrix=256×256, number of average=3).
Middle cerebral artery occlusion (MCAO) surgery was used to induce focal cerebral ischemia through intraluminal filament methods as described previously (Zhao et al., 2014, Stroke 45:1139-1147). The animals underwent right MCAO for 24 hours. ZnPP (10 μg/kg) in […] or 5 μl saline was injected to 6.0 mm deep at 3.5 mm right of the bregma through a burr hole on normal or MCAO rat, 10 minutes after MCAO onset.

For series [9], the system named is labile zinc accumulation in brain tissue after hemorrhagic stroke. As to the kind of experiment: Labile zinc staining (Fluozin-3) on brain slices after collagenase-induced ICH. It counts as in vivo, rat. To be noted: rats pretreated with 10 mg/kg i.p. one hour before collagenase injection; versus saline control. Here is the method: as §1, with “study. […]” for “study.”
To detect labile zinc in brain tissue, cryosections 16 μm thick were stained with the zinc-specific membrane-permeable fluorescent dyes Fluozin-3 (Invitrogen, Thermo Fisher Scientific, Carlsbad, Calif.). […] After washing in saline, images were acquired by a fluorescence microscope (Olympus IX71, Olympus Corp., Center Valley, Pa.) with a GFP dichroic mirror.

Series [10] concerns whole rat blood. Description: ZnPP generation in whole blood with zinc under hypoxia. To be noted: 100 μM zinc, hypoxia three hours, P=0.00096. Here is the method:
The animals were euthanized at 24 hours after collagenase injection. The brains were harvested and cut into 2-mm thick coronal slice. The tissue with visible blood at the hemorrhagic hemisphere of each slice was collected. And the tissue at the corresponding location at the contralateral hemisphere was also collected. The tissue was homogenized on ice in ethanol. After centrifugation at 13,000×g, the fluorescence intensity (excitation=416 nm, emission=588 nm) was determined using a SpectraMax M2 Multi-Mode Microplate Readers (Molecular Devices LLC, Sunnyvale, Calif.) as previously described (Nakamura et al., 2011. J Control Release 155(3):367-375. After being treated with heparin as an anti-coagulant, 50 μl blood was diluted in ethanol. Followed by centrifugation, the fluorescence intensity of ZnPP in the ethanol extract supernatant was measured.
Blood was drawn from normal Sprague Dawley rats. Blood was subjected to hypoxia by incubating in a humidified airtight chamber (Billups-Rothenberg, Inc., San Diego, Calif.) equipped with an air lock and flushed with 95% N2/5% CO2 for 15 minutes. Then the chamber was scaled and kept at 37° C. for three hours.

In series [11] the test system is ZnPP in hemorrhagic hemisphere tissue. Description: Fluorescence spectrophotometry of ZnPP in brain tissue extract. To be noted: TPEN pretreatment. Format: in vivo, rat. Here is the method: as §1, with “study. […]” for “study.”
The animals were euthanized at 24 hours after collagenase injection. […] After centrifugation at 13,000×g, the fluorescence intensity (excitation=416 nm, emission=588 nm) was determined using a SpectraMax M2 Multi-Mode Microplate Readers (Molecular Devices LLC, Sunnyvale, Calif.) as previously described (Nakamura et al., 2011. J Control Release 155(3):367-375. After being treated with heparin as an anti-coagulant, 50 μl blood was diluted in ethanol. Followed by centrifugation, the fluorescence intensity of ZnPP in the ethanol extract supernatant was measured.

Here are results for four compounds from US20230132378A9, “COMPOSITIONS AND METHODS FOR TREATING HEMORRHAGIC STROKE” (UNM RAINFOREST INNOVATIONS, priority 2017, published 2023).

hemin: the “astrocyte toxicity in hypoxia” value in [1] is “did not”. Moreover, the “neuron toxicity under hypoxia” value in series [2] (hypoxia) was “significant dose-dependent increases”. For the same compound, the “cell death in normoxia” value in [2] is “Neither ZnPP nor hemin induced significant cell death”.

With “N-methyl protoporphyrin IX [N-methyl PP]”, the “reduction of ZnPP fluorescence in brain tissue versus no treatment” value in [3] (N-methyl PP 100 mg/kg i.p. one hour before ICH induction, P=0.0037) was “about two thirds”. Further, in series [4], the inhibition of ferrochelatase result is “potently inhibited”. Besides, in series [5] (N-methyl PP pretreatment one hour before collagenase-induced ICH, P=0.043), the “brain damage in ICH by T2-weighted MRI” value was “significantly reduced”. For the same compound, the “number of TUNEL positive cells relative to saline treated control group” value in series [6] (N-methyl PP 100 mg/kg i.p. pretreatment, P=0.000039) is 14%.

For `C=CC1=C(C)c2cc3[n-]c(cc4nc(cc5[n-]c(cc1n2)c(C)c5C=C)C(C)=C4CCC(=O)O)c(CCC(=O)O)c3C.[Zn+2]` [ZnPP, zinc protoporphyrin], in series [1], the “astrocyte toxicity in hypoxia” value was “dose dependent increase in toxicity”. The “neuron toxicity under hypoxia” value in series [2] (hypoxia) is given as “significant dose-dependent increases”. In addition, in series [2] (hypoxia, 2.5 μM P=0.0092, 5 μM P=0.0046, 7.5 μM P=0.0059), the “toxicity in hypoxia compared with hemin (neurons)” value is “greater than that of hemin”. Also, the “cell death in normoxia” value in [2] is reported as “Neither ZnPP nor hemin induced significant cell death”. In series [7], the “level significantly decreasing HO-1 activity” value is 0.15. The “brain damage area on T2-weighted MRI after ZnPP injection” value in [8] is reported as “significantly increased”.

For the compound `c1ccc(CN(CCN(Cc2ccccn2)Cc2ccccn2)Cc2ccccn2)nc1` [TPEN, N,N,N′,N′-tetrakis-(2-Pyridylmethyl)ethylenediamine], the “zinc fluorescence signal (Fluozin-3) around hemorrhagic area” value in series [9] is “significantly reduced”. Further, the “zinc-induced ZnPP generation in hypoxic blood” value in series [10] is “decreased”. For the same compound, in series [3] (TPEN pretreatment, 24 hours after collagenase injection, P=0.0034), the “ZnPP fluorescence on brain slices” value is listed as “significantly decreased”. Besides, the “hyperintense lesion on T2-weighted MRI (brain damage)” value in series [5] (TPEN pretreatment, 24 hours after collagenase-induced ICH) was “significantly reduced”. Also, the “ZnPP formed at the hemorrhagic hemisphere (fluorescence intensity at 588 nm)” value in series [11] is recorded as “significantly reduced”. In addition, the “TUNEL signal (cell death) at edge of hemorrhagic area” value in series [6] (TPEN 10 mg/kg i.p. one hour before collagenase injection) is “markedly decreased”.
